Measured values taken from patent US20200215029A1, “APPLICATION OF AMD3100 IN PREPARATION OF DRUG FOR TREATING AND/OR PREVENTING CACHEXIA AND PHARMACEUTICAL COMPOSITION THEREOF” (SUN YAT-SEN UNIVERSITY, priority 2017, published 2020).

Experiments:
[1] = test system: Nestin+ cells; settings: AMD3100 0.15 mg/kg body weight/day by Alzet slow-release pump, tumor-bearing mice
Method: 8-week-old C57 BL/6 male mice having no more than […] of weight were taken and divided into control group, cachexia group (LLC), and AMD3100 group (LLC+AMD3100).
Control group: no treatment.
Cachexia group: 4×10^6 LLC was transplanted subcutaneously into the groin of mice. After 7 days, mice were anesthetized with 100 μL of 10% chloral hydrate, and Alzet slow release pumps (model: 1004) were implanted subcutaneously on the back of mice. The normal saline was contained in the pump.
AMDd3100 group: 4×10^6 LLC was transplanted subcutaneously into the groin of mice. After 7 days, mice were anesthetized with 100 μL of 10% chloral hydrate, and an Alzet slow-release pump (model: 1004) was implanted subcutaneously on its back, and AMD3100 was contained in the pump. The use amount of mice AMD3100 was 0.15 mg/kg weight/day. After 14 days of installation of the slow-release pump, the mice were killed, and the muscle and fat tissue sections were taken for immunofluorescence staining, or RNA reverse transcription for fluorescence quantitative PCR was carried out by extracting RNA reverse transcription to detect the expression of Nestin.

[2] = test system: muscle and fat-derived Nestin+ cells; experiment: Transwell migration of mouse Nestin+ cells promoted by Cxcl12; assay type: cell-based; settings: 1 μmol/ml Cxcl12 under the Transwell chamber (8 μm pore), 24 hours, versus control without Cxcl12
Method: The Corning Transwell chamber (8 μm pore size) was placed on a 24-well plate, and muscle and fat-derived Nestin+ cells (see example 1) cultured in vitro were inoculated in the Transwell chamber with 2×10^4 cells/well, and cultured in a 5% CO2 and 37° C. incubator. Each well was added with 500 μl of DMEM/low sugar under the Transwell chamber. The experimental group contained 1 μmol/ml Cxcl12 factors, while Cxcl12 factors were not added in control group. After 24 hours, the chamber was taken out, the cells inside the chamber were wiped out with a cotton swab, and the chamber was washed gently and immobilized and rinsed twice with anhydrous alcohol; the chambers in various groups were marked, and erected on the abandoned well plate, and crystal violet dye solution was added into each well for incubate at room temperature for 15 min; excessive staining solution was washed away. The quantity of migrated cells in each group was measured under the inverted microscope. Five fields (400 times) were randomly selected to calculate the quantity of migrated cells in each group under the microscope with 3 repeated wells in each group. The average value of the results was calculated. It can be seen from FIG. 6 that Cxcl 12 can promote the migration of mouse Nestin+ cells.

Row | Compound | migration of Nestin+ cells from muscles and fats toward tumor [1] | migration of mouse Nestin+ cells (quantity of migrated cells) [2] | migration of mouse Nestin+ cells (quantity of migrated cells) ([2]; listed as Cxcl12)
1 | c1cc(CN2CCCNCCNCCCNCC2)ccc1CN1CCCNCCNCCCNCC1 [AMD3100, 1,1′-[1,4-phenylenebis(methylene)]-di-1,4,8,11-tetraazacyclotetradecane] | successfully inhibit |  | 
2 | Cxcl 12: chemokine Cxcl12 factor added under the Transwell chamber; highly expressed in mouse tumor |  | promote | promoted
